In patent publication US20210038559A1, “CANNABINOIDS AND DERIVATIVES FOR PROMOTING IMMUNOGENICITY OF TUMOR AND INFECTED CELLS” (priority 2018, published 2021):

These compounds were tested on MHC-I expression by COLO 205 cells (assay: cells). Details: not given.
Assay type: cell-based, human
Experimental: A panel of synthetic cannabinoids (Cayman Chemical, #9002891) was tested for MHC class I-inducing capability in COLO 205 cells as described above. COLO 205 cells were treated with the compounds at a concentration of 35 μM and evaluated for cell surface MHC class I expression after 48 hours. Cells were harvested, stained with MHC-I mAb W6/32 (Thermo Fisher). MHC-I expression was determined by flow cytometry.

Structure (SMILES)	Induction Fold [Fold]
CCCCCn1cc(Cc2cccc3ccccc23)c2ccccc21 [Example 252, 3-(1-naphthalenylmethyl)-1-pentyl-1H-indole]	1.61

Same assay, conditions: Homo sapiens, COLO 205, 48 h, MHC-I expression, COLO 205 cells, compounds at 35 μM, 48 hours, flow cytometry (W6/32); read-out: Induction Fold

Structure (SMILES)	fold induction at 35 µM
CC(C)[C@H](NC(=O)c1cn(Cc2ccc(F)cc2)c2ccccc12)C(N)=O [Example 237, N-[(1S)-1-(aminocarbonyl)-2-methylpropyl]-1-[(4-fluorophenyl)methyl]-1H-indole-3-carboxamide]	1.7
CCCCCn1cc(C(=O)c2cccc3c(Cl)cccc23)c2ccccc21 [Example 238, (5-chloronaphthalen-1-yl)(1-pentyl-1H-indol-3-yl)methanone]	1.7
COC(=O)[C@@H](NC(=O)c1ccc2c(c1)c1ccccc1n2CC1CCCCC1)C(C)(C)C [Example 239, methyl (S)-2-(9-(cyclohexylmethyl)-9H-carbazole-3-carboxamido)-3,3-dimethylbutanoate]	1.69
CCCCCn1cc(C(=O)c2cccc3cc(C)ccc23)c2ccccc21 [Example 240, (6-methylnaphthalen-1-yl)(1-pentyl-1H-indol-3-yl)methanone]	1.69
CCCCCn1c(C)c(C(=O)c2ccc(CC)c3ccccc23)c2ccccc21 [Example 244, (4-ethyl-1-naphthalenyl)(2-methyl-1-pentyl-1H-indol-3-yl)-methanone]	1.66
CCCCCn1cc(C(=O)N[C@@H](Cc2ccccc2)C(N)=O)c2ccccc21 [Example 246, (S)-N-(1-amino-1-oxo-3-phenylpropan-2-yl)-1-pentyl-1H-indole-3-carboxamide]	1.65
CC(C)(C)C(NC(=O)c1nn(Cc2ccc(F)cc2)c2ccccc12)C(N)=O (stereo not drawn) [Example 247, N-[1-(aminocarbonyl)-2,2-dimethylpropyl]-1-[(4-fluorophenyl)methyl]-1H-indazole-3-carboxamide]	1.64
O=C(Oc1cccc2ccccc12)c1cn(Cc2ccc(F)cc2)c2ccccc12 [Example 248, 1-[(4-fluorophenyl)methyl]-1H-indole-3-carboxylic acid, 1-naphthalenyl ester]	1.63
CCCCCn1cc(C(=O)Oc2cccc3ccccc23)c2ccccc21 [Example 249, naphthalen-1-yl 1-pentyl-1H-indole-3-carboxylate]	1.63
CCN(CC)CCN1C(=O)CN=C(c2ccccc2F)c2cc(Cl)ccc21 [Example 250, 7-chloro-1-[2-(diethylamino)ethyl]-5-(2-fluorophenyl)-1,3-dihydro-2H-1,4-benzodiazepin-2-one]	1.63
CC(C)CCn1cc(C(=O)c2ccc3ccccc3c2)c2ccccc21 [Example 251, (1-isopentyl-1H-indol-3-yl)(naphthalen-2-yl)methanone]	1.62
COc1ccc(C(=O)c2cn(CC3CCCCC3)c3ccccc23)c2ccccc12 [Example 253, [1-(cyclohexylmethyl)-1H-indol-3-yl](4-methoxy-1-naphthalenyl)-methanone]	1.61
O=C(Oc1ccc2ccncc2c1)c1cn(CC2CCCCC2)c2ccccc12 [Example 254, isoquinolin-7-yl 1-(cyclohexylmethyl)-1H-indole-3-carboxylate]	1.6
CCCCCn1cc(C(=O)c2cccc3c(CC)cccc23)c2ccccc21 [Example 255, (5-ethyl-1-naphthalenyl)(1-pentyl-1H-indol-3-yl)-methanone]	1.6

Same assay, conditions: MHC-I expression, COLO 205 cells, compounds at 35 μM, 48 hours, flow cytometry (W6/32)

Structure (SMILES)	Induction Fold [Fold]
CCCCCCCC/C=C\CCCCCCCC(=O)N[C@H](C)CO [Example 242]	1.67
CCCCCn1nc(C(=O)OC23CC4CC(CC(C4)C2)C3)c2ccccc21 [Example 243, (3s,5s,7s)-adamantan-1-yl 1-pentyl-1H-indazole-3-carboxylate]	1.67
CCCCCn1cc(C(=O)C23CC4CC(CC(C4)C2)C3)c2ccccc21 [Example 245, (1s,3s)-adamantan-1-yl(1-pentyl-1H-indol-3-yl)methanone]	1.66
